In brackets after ≈: the same amount, converted by molar mass. Several values for one entry are separate records, joined by “and”; a condition that tells them apart may be missing. Equal values may be shown once. Read-outs that look alike come from different tables or passages of the source.
Tests used:
[1] = test system: HT-1080, NB 4, Raji and RPMI 8226 cells; assay: In vitro cytotoxicity across the CD13 cell panel and CD13 selectivity; type: cell-based, human; conditions: CD13 positive and negative cell lines
From the text: (§1) Cell survival was expressed as percentage of control, untreated cell survival.

[2] = test system: Raji (CD13−); assay: In vitro cytotoxicity of ADCs and related reagents, MTT assay; type: cell-based, human; conditions: Raji cells, geometric mean of the IC50 values of three experiments
Description: (§2) Briefly, cells were seeded in 96-well trays and treated as above and after 72 hours of exposure to the tested substances cellular viability was estimated from conversion of MTT (Sigma, St Louis, MO, USA) to its coloured reaction product, MTT-formazan, which was dissolved in DMSO to measure its absorbance at 540 nm in a microplate spectrophotometer.
as §1

[3] = test system: RPMI 8226 (CD13−); assay: as above; type: cell-based, human; conditions: RPMI8226 cells, geometric mean of the IC50 values of three experiments
Description: as §2, §1

[4] = test system: NB 4 (CD13+); assay: as above; type: cell-based, human; conditions: NB-4 cells, geometric mean of the IC50 values of three experiments
Description: as §2, §1

[5] = test system: SK-BR-3, HCC-1954, MDA-MB-231 and MCF-7 cells; assay: In vitro cytotoxicity across the HER2 breast cancer cell panel and HER2 selectivity; type: cell-based
Description: For SK-BR-3, HCC-1954, MDA-MB-231 and MCF-7 cells, a colorimetric assay using Sulforhodamine B (SRB) was adapted for quantitative measurement of cell growth and cytotoxicity, as described in V. Vichai and K. Kirtikara. Sulforhodamine B colorimetric assay for cytotoxicity screening. Nature Protocols, 2006, 1, 1112-1116. Briefly, cells were seeded in 96-well microtiter plates and allowed to stand for 24 hours in drug-free medium before treatment with vehicle alone or with the tested substances for 72 hours.
as §1
Standard dose-response (DR) curves for 72 hours incubation with the tested substances were performed.

[6] = test system: MDA-MB-231 (HER2−); assay: In vitro cytotoxicity of ADCs and related reagents, SRB assay; type: cell-based; conditions: Homo sapiens; MDA-MB-231, HER2 negative, 72 hours; read-out: IC50
Description: (§3) Sulforhodamine B colorimetric assay for cytotoxicity screening. […] Briefly, cells were seeded in 96-well microtiter plates and allowed to stand for 24 hours in drug-free medium before treatment with vehicle alone or with the tested substances for 72 hours.
as §1

[7] = test system: SK-BR-3 (HER2+); assay: as above; type: cell-based; conditions: Homo sapiens; SK-BR-3, HER2 positive, 72 hours; read-out: IC50
Description: as §3, §1

[8] = test system: MCF-7 (HER2−); assay: as above; type: cell-based; conditions: Homo sapiens, MCF7; MCF-7, HER2 negative, 72 hours; read-out: IC50
Description: as §3, §1

[9] = test system: HCC-1954 (HER2+); assay: as above; type: cell-based; conditions: Homo sapiens, HCC1954; HCC-1954, HER2 positive, 72 hours; read-out: IC50
Description: as §3, §1

[10] = test system: HT29; assay: cells; type: cell-based; conditions: HT29, 72 hours treatment, SRB
From the text: (§4) Evaluation of Cytotoxic Activity Using the SRB and the MTT Colorimetric Assays

[11] = test system: A549; type: cell-based; conditions: A549, 72 hours treatment, SRB
From the text: as §4

[12] = test system: PSN1; type: cell-based; conditions: PSN1, 72 hours treatment, SRB
From the text: as §4

[13] = test system: MDA-MB-231; assay: cells; type: cell-based; conditions: MDA-MB-231, 72 hours treatment, SRB
From the text: as §4

[14] = Homo sapiens, read-out: IC50 values, range over the four cell lines
[15] = Homo sapiens, read-out: geometric mean IC50 value across the whole cell panel
[16] = read-out: LC50 (the source's name)

Compound | IC50 [5, 14] | IC50 [5, 15] | IC50 [6] | IC50 [7] | IC50 [8] | IC50 [9] | TGI [10] [Molar] | TGI [11] [Molar] | TGI [12] [Molar] | other results
COc1c(C)cc2c(c1O)[C@@H]1[C@@H]3[C@@H]4SC[C@]5(N[C@@H](CN)Cc6c5[nH]c5ccccc65)C(=O)OC[C@@H](c5c6c(c(C)c(OC(C)=O)c54)OCO6)N3[C@@H](C#N)[C@H](C2)N1C [11-R] | – | – | – | – | – | – | – | – | – | geometric mean IC50 value across the whole cell panel [1]: 0.84 ng/mL; IC50 ([1]; read-out: geometric mean IC50 value across the whole cell panel): 1.06 nM; IC50 Raji (CD13 negative) [2]: 0.967 ng/mL (≈ 1.22 nM); IC50 ([2]; read-out: IC50 Raji (CD13 negative)): 1.22 nM; IC50 RPMI8226 (CD13 negative) [3]: 0.928 ng/mL (≈ 1.17 nM); IC50 ([3]; read-out: IC50 RPMI8226 (CD13 negative)): 1.17 nM; IC50 NB-4 (CD13 positive) [4]: 0.46 ng/mL (≈ 0.58 nM); IC50 ([4]; read-out: IC50 NB-4 (CD13 positive)): 0.58 nM; geometric mean IC50 value across the whole cell panel ([5]; SK-BR-3, HCC-1954, MDA-MB-231, MCF-7): 0.79 ng/mL; IC50 ([5]; SK-BR-3, HCC-1954, MDA-MB-231, MCF-7, read-out: geometric mean IC50 value across the whole cell panel): 0.994 nM
COc1c(C)cc2c(c1O)[C@@H]1[C@@H]3[C@@H]4SC[C@]5(N[C@@H](CNC(=O)OCc6ccc(NC(=O)[C@H](CCCNC(N)=O)NC(=O)[C@@H](NC(=O)CCOCCOCCOCCOCCNC(=O)CCN7C(=O)C=CC7=O)C(C)C)cc6)Cc6c5[nH]c5ccccc65)C(=O)OC[C@@H](c5c6c(c(C)c(OC(C)=O)c54)OCO6)N3[C@@H](C#N)[C@H](C2)N1C [DL 2] | 0.2 µg/mL to 0.47 µg/mL and 125 nM to 294 nM | 0.28 µg/mL and 173 nM | 0.2 µg/mL and 125 nM | 0.2 µg/mL and 125 nM | 0.469 µg/mL and 294 nM | 0.31 µg/mL and 194 nM | – | – | – | –
COc1ccc2[nH]c3c(c2c1)C[C@@H](CN)N[C@]31CS[C@@H]2c3c(OC(C)=O)c(C)c4c(c3[C@H](COC1=O)N1[C@@H]2[C@H]2c3c(cc(C)c(OC)c3O)C[C@@H]([C@@H]1O)N2C)OCO4 [27-S] | – | – | – | – | – | – | 1.35E-09 | 1.12E-08 | 2.83E-09 | –
COc1c(C)cc2c(c1O)C1C3C4SCC5(NC(COC(C)=O)Cc6c5[nH]c5ccccc65)C(=O)OCC(c5c6c(c(C)c(OC(C)=O)c54)OCO6)N3C(C#N)C(C2)N1C (stereo not shown) [3a-S] | – | – | – | – | – | – | 3.23E-09 | 3.23E-09 | 3.59E-09 | GI50 [13]: 2.87 nM; TGI [13]: 3.59E-09 Molar; CC50 [13, 16]: 4.9 nM; GI50 [10]: 2.99 nM; CC50 [10, 16]: > 120 nM; GI50 [11]: 3.11 nM; LC50 (concentration giving 50% net cell kill) [11]: > 120 nM; GI50 [12]: 2.15 nM; CC50 [12, 16]: 12 nM
COc1c(C)cc2c(c1O)[C@@H]1[C@@H]3[C@@H]4SC[C@]5(N[C@@H](CNC(=O)OCc6ccc(NC(=O)[C@H](C)NC(=O)[C@@H](NC(=O)CCOCCOCCOCCOCCNC(=O)CCN7C(=O)C=CC7=O)C(C)C)cc6)Cc6c5[nH]c5ccccc65)C(=O)OC[C@@H](c5c6c(c(C)c(OC(C)=O)c54)OCO6)N3[C@@H](O)[C@H](C2)N1C [DL 5] | 0.1 µg/mL to 0.19 µg/mL and 65.3 nM to 127 nM | 0.13 µg/mL and 88.4 nM | 0.0981 µg/mL and 65.3 nM | 0.0981 µg/mL and 65.3 nM | 0.17 µg/mL and 113 nM | 0.191 µg/mL and 127 nM | – | – | – | –
COc1c(C)cc2c(c1O)[C@@H]1[C@@H]3[C@@H]4SC[C@]5(N[C@@H](CNC(=O)OCc6ccc(NC(=O)[C@H](CCCNC(N)=O)NC(=O)[C@@H](NC(=O)CCCCCN7C(=O)C=CC7=O)C(C)C)cc6)Cc6c5[nH]c5ccccc65)C(=O)OC[C@@H](c5c6c(c(C)c(OC(C)=O)c54)OCO6)N3[C@@H](C#N)[C@H](C2)N1C [DL 1] | 0.07 µg/mL to 0.43 µg/mL and 52.3 nM to 311 nM | 0.16 µg/mL and 115 nM | 0.0728 µg/mL and 52.3 nM | 0.116 µg/mL and 83.1 nM | 0.433 µg/mL and 311 nM | 0.18 µg/mL and 129 nM | – | – | – | –
